Here are results for 11 compounds from US11371099B2, “HEATR1 as a marker for chemoresistance” (MAYO FOUNDATION FOR MEDICAL EDUCATION AND RESEARCH, priority 2015, dated 2022).

Series [1] has as its system Akt. The following applies: cited from earlier work.
In series [2] the test system is SU86.86, ASPC-1, and PANC-1 cells. Kind of series: MTS cell survival assay in pancreatic cancer cells transfected with control or HEATR1 siRNA/shRNA. It is filed as cell-based, human. The following applies: HEATR1 siRNA or shRNA vs control. The method, then: FIG. 1. […] (A) Cells were transfected with indicated siRNA and treated with Gemcitabine. Cell survival was determined. […] (C) SU86.86 cells were transfected with indicated siRNA and treated. Cell survival was determined.
(A) PANC-1 and ASPC-1 cells stably expressing control or HEATR1 shRNA treated with gemcitabine. Cell survival was determined as described in FIG. 1A. The data presented are mean±SD for six independent experiments. […] (B) PANC-1 and ASPC-1 cells were transfected with control or HEATR1 siRNA and then treated with the indicated drugs. Cell survival was determined as described in A. The data presented are mean±SD for six independent experiments.
Human pancreatic cancer cell lines SU86.86, ASPC-1, and PANC-1 were purchased from ATCC in 2014. The identities of these cell lines were confirmed by the medical genome facility at Mayo Clinic Center using short tandem repeat profiling upon receipt. The cell lines were maintained in RPMI 1640 with 10% FBS. HEATR1 cDNA was purchased from Thermo Scientific and full length and mutants were subcloned into pIRES-EGFP. PP2A-Aα, B55α, B56β, Cα were purchased from addgene and subcloned into HA-pcmv and pGex4T-1. HEATR1 siRNA and shRNA were from Dharmacon and Sigma, respectively.
Gemcitabine was from Eli Lilly (Indianapolis, Ind.). Paclitaxel, SN-38, mitomycin c, oxaliplatin and etopside were from Sigma-Aldrich (St. Louis, Mo.). […] Ctrl (Control) or HEATR1 siRNA or shRNA were transfected, and the growth-inhibitory effect was performed as described previously (21). In one embodiment, a MTS assay may be performed by a MTS Cell Proliferation Assay Kit (Colorimetric) (197010); a colorimetric sensitive quantification of viable cells in proliferation and cytotoxicity assays. The assay is based on the reduction of MTS tetrazolium compound by viable cells to generate a colored formazan product that is soluble in cell culture media.
(In general: Formazan colour is commonly taken as a measure of viable cells.)

For the next series, the system named is PANC-1 xenograft tumors. Kind of series: Tumor xenograft study, PANC-1 cells stably expressing Ctrl or HEATR1 shRNA. The class given is in vivo, mouse. The following applies: Gemcitabine 50 mg/kg i.p. every 3 days; HEATR1 shRNA vs Ctrl.
In another series the test system is SU86.86 cells. As to the kind of experiment: Apoptosis (cleaved PARP1 western blot) in cells expressing control or HEATR1 shRNA. It is filed as cell-based, human. The note with it: control cells vs HEATR1 shRNA cells; 10 μM, 48 hours. The procedure: (A) SU86.86 cells stably expressing control or HEATR1 shRNA treated with gemcitabine (10 μM). Cell lysate were collect at 48 hours and western blotting was performed with indicated antibodies. (B) Cells stably expressing control or HEATR1 shRNA were seeded in each well (5×10^4/well) and cell numbers were counted every 24 hour. Data are represented as the mean±SD of four independent experiments. We prepared cell lysates, performed immunoprecipitation, and immunoblotting as previously described. In brief, cells were lysed with NETN buffer (20 mM Tris-HCl, pH 8.0, 100 mM NaCl, 1 mM EDTA, 0.5% Nonidet P-40) containing 50 mM b-glycerophosphate, 10 mM NaF, and […] each of pepstatin A and aprotinin. Whole cell lysates were pulse-sonicated and obtained by centrifugation. Whole cell lysates were incubated with 2 μg of antibody and protein A or protein G Sepharose beads (Amersham Biosciences) for 2 hr or overnight at 4° C. The immunocomplexes were then washed with NETN buffer for three times and separated by SDS-PAGE. Immunoblotting was performed following standard procedures. GST fusion proteins were bound to glutathione-Sepharose overnight at 4° C. The beads were washed with PBS four times and incubated with cell lysates for 1 h at 4° C. After washing with NETN for three times, the bound proteins were separated by SDS-PAGE and immunoblotted with indicated antibodies.
In general terms: A western blot detects proteins with antibodies after separation by electrophoresis.

In the next series the test system is pancreatic tumor. The note with it: dinaciclib combined with MK-2206; cited from earlier work.
For series [3] the following is noted: patients with advanced solid tumors; cited from earlier work.
Series [4] deals with Akt. The following applies: cited from earlier work. This is another data set of the same source.
Series [5] has as its system Akt phospho-Thr308 and phospho-Ser473. The note with it: in vivo, both sensitive and resistant tumors; cited from earlier work.
The subject of series [6] is Akt phosphorylation at Thr308. As to the kind of experiment: Western blot of Akt phosphorylation after serum starvation and serum addition. It is filed as cell-based, human. The following applies: SU86.86 cells, pretreated 5 nM. The procedure: (A) Intracellular co-localization of HEATR1 and AKT were observed by using confocal microscopy in Su86.86, PANC-1 and ASPC-1 cells. (B) Cell lysates were subjected to immunoprecipitation with control IgG or anti-HEATR1 antibodies. The immunoprecipitates were then blotted with indicated antibodies. (C) Cells were transfected with control or HEATR1 siRNA, and the interaction between Akt and PDK1 was examined. (D) SU86.86 Cells transfected with control or HEATR1 siRNA were serum starved for 16 hours (0.1% serum), pretreated with DMSO or okadaic acid (5 nM) and then serum was added. Whole-cell lysates were harvested at indicated time and western blotting was performed with indicated antibodies.
We prepared cell lysates, performed immunoprecipitation, and immunoblotting as previously described. In brief, cells were lysed with NETN buffer (20 mM Tris-HCl, pH 8.0, 100 mM NaCl, 1 mM EDTA, 0.5% Nonidet P-40) containing 50 mM b-glycerophosphate, 10 mM NaF, and […] each of pepstatin A and aprotinin. Whole cell lysates were pulse-sonicated and obtained by centrifugation. Whole cell lysates were incubated with 2 μg of antibody and protein A or protein G Sepharose beads (Amersham Biosciences) for 2 hr or overnight at 4° C. The immunocomplexes were then washed with NETN buffer for three times and separated by SDS-PAGE. Immunoblotting was performed following standard procedures. […]

Experimental for PANC-1 xenograft tumors: Xenograft tumors were dissected and tumor weights were measured after mice were sacrificed (C). ANOVA analysis was performed (Mann-Whitney test) +P<0.05, ++P<0.01 (Ctrl vs KD). […] Representative photographs of indicated xenograft tumors were shown in (E). Female athymic nu/nu mice were obtained from the National Cancer Institute. Experiments were performed under the approval of the Institutional Animal Care and Use Committee at Mayo Clinic. PANC-1 cells stably expressing Ctrl and HEATR1 shRNA were injected subcutaneously in mouse flanks (10^6 cells/mouse flank). Tumor volumes were measured every three days. […] After sacrificing the mice, tumors were surgically removed and weighted.

Take `S=C=NCc1ccccc1` [BITC, Benzyl isothiocyanate]: the “Phosphorylation of Akt at both Ser-473 and Ser-308” value in the series on Akt [1] was “suppresses”.

On to `CC[C@@]1(O)C(=O)OCc2c1cc1n(c2=O)Cc2cc3ccccc3nc2-1` [Camptothecin], for which the “Cell survival / resistance to drug in cells with HEATR1 knockdown versus control” value in series [2] is recorded as “significantly resistant”.

As for `Nc1ccn([C@@H]2O[C@H](CO)[C@@H](O)C2(F)F)c(=O)n1` [Gemcitabine], the “Tumor response to drug in xenografts with HEATR1 downregulation” value in the series on PANC-1 xenograft tumors is “resistance to Gemcitabine”. Further, the “Cell survival / resistance to drug in cells with HEATR1 knockdown versus control” value in [2] is given as “increased resistance”. Further, the “Apoptosis activity induced by drug” value in the series with SU86.86 cells is “stronger apoptosis activity in control cells”. As for `NC1(c2ccc(-c3nc4ccn5c(=O)[nH]nc5c4cc3-c3ccccc3)cc2)CCC1` [MK-2206], the “Pancreatic tumor growth and metastases” value with pancreatic tumor is recorded as “dramatically block”. The Tolerability result in series [3] was “well tolerated”. On to `CCCCCCCCCCCCc1ccc(S(=O)(=O)Nc2nncs2)cc1` [PHT-427], for which the “Akt activity in resistant cancer cells” value in the series with Akt [4] is “increase in Akt activity”. For the same compound, in series [5], the “Akt phospho-Thr308 and phospho-Ser473 in tumors” value was “decreased”. On to `CCc1c2c(nc3ccc(O)cc13)-c1cc3c(c(=O)n1C2)COC(=O)[C@]3(O)CC` [SN-38], for which the “Cell survival / resistance to drug in cells with HEATR1 knockdown versus control” value in [2] was “significantly resistant”. With `COc1cc([C@@H]2c3cc4c(cc3[C@@H](O[C@@H]3O[C@@H]5CO[C@@H](C)O[C@H]5[C@H](O)[C@H]3O)[C@H]3COC(=O)[C@H]23)OCO4)cc(OC)c1O` [etopside], the “Cell survival / resistance to drug in cells with HEATR1 knockdown versus control” value in series [2] was “significantly resistant”. Regarding `CO[C@@]12[C@H](COC(N)=O)C3=C(C(=O)C(C)=C(N)C3=O)N1C[C@@H]1N[C@@H]12` [mitomycin c], the “Cell survival / resistance to drug in cells with HEATR1 knockdown versus control” value in series [2] is recorded as “significantly resistant”. Regarding `C=C1[C@@H](O)[C@@H]2O[C@]3(CC[C@H](/C=C/[C@@H](C)[C@@H]4CC(C)=C[C@@]5(O[C@H](C[C@@](C)(O)C(=O)O)CC[C@H]5O)O4)O3)CC[C@H]2O[C@@H]1[C@@H](O)C[C@H](C)[C@H]1O[C@@]2(CCCCO2)CC[C@H]1C` [okadaic acid], the “Akt phosphorylation at Thr308” value in [6] is on record as “significantly increased”. With `O=C1[O][Pt]2([NH][C@@H]3CCCC[C@H]3[NH]2)[O]C1=O` [oxaliplatin], the “Cell survival / resistance to drug in cells with HEATR1 knockdown versus control” value in series [2] was “significantly resistant”. Same read-out and setting: to `CC(=O)O[C@H]1C(=O)[C@@]2(C)[C@H]([C@H](OC(=O)c3ccccc3)[C@]3(O)C[C@H](OC(=O)[C@H](O)[C@@H](NC(=O)c4ccccc4)c4ccccc4)C(C)=C1C3(C)C)[C@]1(OC(C)=O)CO[C@@H]1C[C@@H]2O` [paclitaxel] belongs “significantly resistant”.
